Source: the supplement of paper PMC10307832

What was measured:
Assay in all cases: relative viability (nuclei count vs DMSO), 5 days (fraction); higher = more cells survive
[1] = compound: CC(C)(C)c1cc(NC(=O)Nc2ccc(-c3cn4c(n3)sc3cc(OCCN5CCOCC5)ccc34)cc2)no1 [Quizartinib] + Cc1nc(NC(=O)N2CCC[C@H]2C(N)=O)sc1-c1ccnc(C(C)(C)C(F)(F)F)c1 [Alpelisib] (partner 2 µM)
In short: (§1)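 Relative viability divides the nuclei count in treated wells by that in vehicle wells. Lung cancer cell lines were seeded in 1536-well plates, dosed by pin tool the next day, and fixed and stained after 5 days in one step with final 0.05% Triton X-100, 1% formaldehyde and 1 ug/ml Hoechst. Dosing was a single drug or a fixed anchor-drug dose plus five library-drug doses (not always all listed) in √10 steps, and values are medians of duplicate plates imaged at 4×.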

[2] = compound: COCC[n+]1c2c(n(Cc3cnccn3)c1C)C(=O)c1ccccc1C2=O [YM155] + COc1cc2c(Oc3ccc(NC(=O)C4(C(=O)Nc5ccc(F)cc5)CC4)cc3F)ccnc2cc1OCCCN1CCOCC1 [Foretinib] (partner 0.25 µM)
In short: as §1

[3] = compound: CC(C)(C)c1cc(NC(=O)Nc2ccc(-c3cn4c(n3)sc3cc(OCCN5CCOCC5)ccc34)cc2)no1 [Quizartinib] + Cc1nc(Nc2ncc(C(=O)Nc3c(C)cccc3Cl)s2)cc(N2CCN(CCO)CC2)n1 [Dasatinib] (partner 0.075 µM)
In short: as §1

[4] = compound: COCC[n+]1c2c(n(Cc3cnccn3)c1C)C(=O)c1ccccc1C2=O [YM155] + C[C@@H](Oc1cc(-c2cnn(C3CCNCC3)c2)cnc1N)c1c(Cl)ccc(F)c1Cl [Crizotinib] (partner 1 µM)
In short: as §1

| Cell Line | relative viability ([1]; first compound 0.001 µM) | relative viability ([1]; first compound 0.003162 µM) | relative viability ([1]; first compound 0.01 µM) | relative viability ([1]; first compound 0.03162 µM) | relative viability ([1]; first compound 0.1 µM) | relative viability ([2]; first compound 0.002 µM) | relative viability ([2]; first compound 0.006325 µM) | relative viability ([2]; first compound 0.02 µM) | relative viability ([2]; first compound 0.06325 µM) | relative viability ([3]; first compound 0.001 µM) | relative viability ([3]; first compound 0.003162 µM) | relative viability ([3]; first compound 0.01 µM) | relative viability ([3]; first compound 0.03162 µM) | relative viability ([3]; first compound 0.1 µM) | relative viability ([4]; first compound 0.002 µM) | relative viability ([4]; first compound 0.006325 µM) | relative viability ([4]; first compound 0.02 µM) | relative viability ([4]; first compound 0.06325 µM) |
| --- | --- | --- | --- | --- | --- | --- | --- | --- | --- | --- | --- | --- | --- | --- | --- | --- | --- | --- |
| NCI-H2347 | 0.655 | 0.995 | 1.12 | 1.11 | 1.14 | 0.767 | 0.907 | 1.38 | 0.892 | 0.3 | 0.298 | 0.296 | 0.376 | 0.304 | 0.683 | 0.644 | 0.561 | 0.633 |
| HOP-62 | 0.75 | 0.706 | 1.19 | 1.26 | 0.907 | 0.979 | 1.04 | 1.17 | 1.02 | 0.564 | 0.589 | 0.638 | 0.652 | 0.662 | 0.91 | 1.01 | 0.919 | 0.983 |
| SW 1573 | 0.779 | 0.728 | 0.836 | 0.686 | 0.793 | 0.986 | 0.974 | 0.92 | 0.877 | 0.417 | 0.481 | 0.561 | – | 0.76 | 0.767 | 0.877 | 0.902 | 0.581 |
| NCI-H1944 | 0.691 | 0.826 | 0.898 | 0.89 | 0.805 | 0.818 | 0.888 | 0.852 | 0.91 | 0.214 | 0.217 | 0.204 | 0.199 | 0.224 | 1.07 | 0.916 | 1.2 | 1.27 |
| NCI-H460 | 0.358 | 0.458 | 0.463 | – | 0.406 | 0.957 | 1.04 | 1.01 | 0.919 | 0.481 | 0.551 | 0.413 | 0.307 | 0.422 | 1.01 | 0.803 | 0.936 | 0.84 |
| NCI-H1993 | 0.668 | 0.638 | 0.614 | 0.65 | 0.642 | 0.659 | 0.709 | 0.811 | 0.64 | 0.636 | 0.478 | 0.58 | 0.644 | 0.662 | 1.01 | 0.825 | 0.703 | 0.552 |
| LOU-NH91 | 0.683 | 0.724 | 0.761 | 0.5 | 0.771 | 0.92 | 0.98 | 1.02 | 0.937 | 0.574 | 0.615 | 0.553 | 0.524 | 0.62 | 0.735 | 0.688 | 0.731 | 0.727 |
| LCLC-103H | 1.01 | 0.533 | 0.94 | 1.04 | 0.943 | 0.802 | 0.722 | 0.815 | 0.839 | 0.461 | 0.454 | 0.402 | 0.557 | 0.487 | 0.971 | 1.03 | 1.03 | 1 |
| 201T | 0.759 | 0.957 | 0.988 | 0.987 | 0.982 | 1.16 | 1.11 | 1.05 | 1.16 | 0.588 | 0.563 | 0.621 | 0.574 | 0.57 | 0.98 | 1 | 1.01 | 1.03 |
| EKVX | 0.799 | 0.841 | 0.924 | 0.914 | 0.973 | 0.858 | 0.757 | 1.32 | 0.69 | – | 0.588 | 0.514 | 0.56 | 0.602 | 0.834 | 1.04 | 0.919 | 0.839 |
| NCI-H1651 | 0.749 | 0.872 | 1.04 | 0.751 | 0.904 | 0.864 | 0.785 | 0.84 | 0.603 | 0.306 | 0.429 | 0.392 | 0.296 | 0.441 | 0.956 | 0.806 | 0.876 | 0.894 |
| LU99A | 0.448 | 0.512 | 0.627 | 0.517 | 0.431 | 0.806 | 0.866 | 0.905 | 0.884 | 0.419 | 0.592 | 0.523 | 0.467 | 0.135 | 0.499 | 0.549 | 0.633 | 0.474 |
| LC-2-ad | 0.775 | 0.837 | 0.952 | 0.9 | 0.592 | 0.923 | 0.967 | 0.884 | 0.666 | 0.48 | 0.799 | 0.546 | – | 0.5 | 0.446 | 0.428 | 0.496 | 0.453 |
| A-427 | 1.06 | 1 | 1.12 | 1.06 | 1.04 | 1.08 | 0.984 | 0.976 | 1.05 | – | 0.718 | 0.706 | 0.657 | 0.663 | 0.959 | 0.839 | 0.89 | 0.865 |
| NCI-H2009 | 1.14 | 1.01 | 1.19 | 1.09 | 1.13 | 1.24 | 1.21 | 1.09 | 0.583 | 0.283 | 0.29 | 0.252 | 0.326 | 0.26 | 1.02 | 0.992 | 0.725 | 0.0795 |
| LCLC-97TM1 | – | 0.22 | 0.267 | 0.261 | 0.252 | 0.924 | 0.97 | 1.07 | 0.97 | 0.856 | 0.735 | 0.842 | 0.892 | 0.738 | 0.401 | 0.4 | 0.442 | 0.318 |
| BEN | 0.919 | 0.863 | 1.05 | 0.795 | 0.969 | 0.622 | 0.716 | 0.804 | 0.645 | 0.292 | 0.335 | 0.347 | 0.257 | 0.318 | 0.873 | 0.987 | 0.863 | 1.05 |
| EMC-BAC-2 | 0.695 | 0.696 | 0.762 | 0.766 | 0.73 | 1.03 | 0.986 | 0.966 | 0.95 | 0.296 | 0.299 | 0.294 | – | 0.375 | 0.786 | 0.765 | 0.758 | 0.7 |
